Laboratory results from US10456407B2, “Combination therapy for treating cancer” (Epizyme, Inc., priority 2015, dated 2019).

System: RL cells
Experiment: RT2 Glucocorticoid signaling PCR array, RL (Table 4e, printed RI) cell line
Type: cell-based
Details: 4 days, Cpd44 1 uM, Pred 10-fold below 4-day IC50, vs DMSO, B2M-normalized

Structure (SMILES): CCN(c1cc(-c2ccc(CN3CCOCC3)cc2)cc(C(=O)NCc2c(C)cc(C)[nH]c2=O)c1C)C1CCOCC1 [Compound 44]
- ΔΔCT (ADARB1 mRNA): −1.672
- ΔΔCT (AFF1 mRNA): −2.005
- ΔΔCT (AK2 mRNA): 0.268
- ΔΔCT (ANGPTL4 mRNA): −0.935
- ΔΔCT (ANXA4 mRNA): −0.562
- ΔΔCT (ARID68 mRNA): −1.220
- ΔΔCT (ATF4 mRNA): 0.003
- ΔΔCT (CEBPB mRNA): −0.004
- ΔΔCT (COL4A2 mRNA): −0.773
- ΔΔCT (CREB1 mRNA): 0.205
- ΔΔCT (CREB3L4 mRNA): −0.760
- ΔΔCT (CREB3 mRNA): −0.189
- ΔΔCT (CYB561 mRNA): −1.477
- ΔΔCT (DDIT4 mRNA): 0.461
- ΔΔCT (DUSP1 mRNA): −0.321
- ΔΔCT (EDN1 mRNA): −1.208
- ΔΔCT (EHD3 mRNA): −0.962
- ΔΔCT (FK8PS mRNA): 0.388
- ΔΔCT (GDPD1 mRNA): −0.772
- ΔΔCT (GLUL mRNA): −2.614
- ΔΔCT (GOT1 mRNA): 0.518
- ΔΔCT (H6PD mRNA): −0.673
- ΔΔCT (HNRPLL mRNA): 0.309
- ΔΔCT (IL1RN mRNA): −1.881
- ΔΔCT (IL6R mRNA): −0.515
- ΔΔCT (IL10 mRNA): −1.432
- ΔΔCT (KLF13 mRNA): −0.566
- ΔΔCT (LOX mRNA): −0.580
- ΔΔCT (MERTK mRNA): −4.419
- ΔΔCT (MT2A mRNA): 0.577
- ΔΔCT (NFKBIA mRNA): 0.854
- ΔΔCT (NR3C1 mRNA): 0.067
- ΔΔCT (PDCD7 mRNA): 0.006
- ΔΔCT (PDP1 mRNA): −0.989
- ΔΔCT (PER1 mRNA): 0.384
- ΔΔCT (PER2 mRNA): −0.361
- ΔΔCT (PIK3R1 mRNA): 0.373
- ΔΔCT (PLEKHF1 mRNA): 0.050
- ΔΔCT (POU2F1 mRNA): −0.027
- ΔΔCT (POU2F2 mRNA): −0.584
- ΔΔCT (RA5A3 mRNA): −0.009
- ΔΔCT (RGS2 mRNA): −0.162
- ΔΔCT (SESN1 mRNA): −1.697
- ΔΔCT (SGK1 mRNA): 0.801
- ΔΔCT (SLC19A2 mRNA): −0.797
- ΔΔCT (SNTA1 mRNA): 0.040
- ΔΔCT (SPHK1 mRNA): −0.781
- ΔΔCT (SPSB1 mRNA): −0.865
- ΔΔCT (STAT5A mRNA): 0.001
- ΔΔCT (STAT5B mRNA): −0.094
- ΔΔCT (TNF mRNA): −0.837
- ΔΔCT (TNFAIP3 mRNA): 0.886
- ΔΔCT (USP2 mRNA): −0.139
- ΔΔCT (USPS4 mRNA): −0.961
- ΔΔCT (VDR mRNA): −2.658
- ΔΔCT (ZHX3 mRNA): 4.661
- ΔΔCT (ZNF281 mRNA): 0.046
